Like-named read-outs stand apart in the source and are kept apart here.
Experiments:
plasma kallikrein (PKa) = target: T1, plasma kallikrein (PKa) (Homo sapiens, UniProt P03952); assay: Inhibitory activity against plasma kallikrein in vitro (fluorescence intensity enzyme assay, Pro-Phe-Arg-AMC substrate); format: biochemical; conditions: Pro-Phe-Arg-AMC substrate
T1 construct: purchased R & D 2497-SE
Outline: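 Fluorescence intensity enzyme assay with 10 nM enzyme and 60 µM Pro-Phe-Arg-AMC (final concentrations). Compounds in DMSO, tested in duplicate over a dose series. IC50 from nonlinear regression curve fitting.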

KLK1 = KLK1 (Homo sapiens, UniProt P06870); assay: Inhibitory activity against KLK1 in vitro (biochemical assay); conditions: values given in µM
Excerpt: Test Example 1. Test of the inhibitory activities of the compounds of the present invention against plasma kallikrein (PKa), KLK1 and FXIa in vitro. […]

FXIa = FXIa (Homo sapiens, UniProt P03951); assay: Inhibitory activity against FXIa in vitro (biochemical assay); conditions: values given in µM
Method: Test Example 1. Test of the inhibitory activities of the compounds of the present invention against plasma kallikrein (PKa), KLK1 and FXIa in vitro.
PKK (R & D, Cat # 2497-SE) and Pro-Phe-Arg-AMC (Nanjing Peptide, Cat # NJP23946) solutions were prepared in reaction buffer (50 mM Tris-HCl, pH 7.5, 250 mM NaCl). The final concentrations of enzyme protein and Pro-Phe-Arg-AMC in the reaction mixture were 10 nM and 60 µM, respectively. The starting concentration of the positive reference substance Avoralstat was 100 nM, 3-fold dilution, 10 + 0 dose. 0.05 µL of compound in 100% DMSO was delivered to a 384-well plate by an acoustic liquid delivery technique (Echo665; nanoliter range). Compound duplex test. 5 µL of 2 × enzyme solution was transferred to a 384 reaction plate and centrifuged at 1000 rpm for 1 minute, incubated at 25°C for 15 minutes; 5 µL of 2 × Pro-Phe-Arg-AMC solution was transferred to a 384 reaction plate, centrifuged at 1000 rpm for 1 minute, incubated at 25°C for 3 hours. […] IC50 values and nonlinear regression curve fitting were obtained using GraphPad Prism software.

[1] = plasma kallikrein enzyme assay, read-out: PKa IC50

Sequence of FXIa (P03951 388-625 limits assumed): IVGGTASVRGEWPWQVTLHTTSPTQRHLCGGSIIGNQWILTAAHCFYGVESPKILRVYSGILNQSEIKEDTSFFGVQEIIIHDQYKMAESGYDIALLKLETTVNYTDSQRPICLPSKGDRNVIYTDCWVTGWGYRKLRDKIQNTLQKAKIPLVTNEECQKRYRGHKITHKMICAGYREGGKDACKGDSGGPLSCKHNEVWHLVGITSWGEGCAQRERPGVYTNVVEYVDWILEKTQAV
Sequence of FXIa (P03951 19-387 partner limits assumed): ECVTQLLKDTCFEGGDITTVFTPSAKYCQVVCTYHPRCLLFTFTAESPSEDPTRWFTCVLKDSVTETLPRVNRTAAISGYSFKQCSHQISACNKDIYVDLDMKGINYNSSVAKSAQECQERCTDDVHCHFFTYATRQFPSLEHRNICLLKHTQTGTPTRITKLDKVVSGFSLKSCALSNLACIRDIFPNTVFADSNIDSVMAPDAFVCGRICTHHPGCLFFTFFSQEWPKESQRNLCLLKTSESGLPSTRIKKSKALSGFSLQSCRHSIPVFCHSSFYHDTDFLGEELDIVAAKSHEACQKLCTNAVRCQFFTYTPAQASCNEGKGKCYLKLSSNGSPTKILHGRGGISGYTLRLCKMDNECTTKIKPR
T1 sequence (P03952 391-638 limits assumed): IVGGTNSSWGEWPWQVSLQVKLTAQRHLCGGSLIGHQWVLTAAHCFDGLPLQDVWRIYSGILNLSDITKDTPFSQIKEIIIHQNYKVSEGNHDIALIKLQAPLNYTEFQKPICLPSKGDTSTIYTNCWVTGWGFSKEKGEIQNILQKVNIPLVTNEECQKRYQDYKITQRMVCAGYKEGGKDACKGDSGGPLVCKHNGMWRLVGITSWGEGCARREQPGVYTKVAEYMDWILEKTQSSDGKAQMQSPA
T1 sequence (P03952 20-390 partner limits assumed): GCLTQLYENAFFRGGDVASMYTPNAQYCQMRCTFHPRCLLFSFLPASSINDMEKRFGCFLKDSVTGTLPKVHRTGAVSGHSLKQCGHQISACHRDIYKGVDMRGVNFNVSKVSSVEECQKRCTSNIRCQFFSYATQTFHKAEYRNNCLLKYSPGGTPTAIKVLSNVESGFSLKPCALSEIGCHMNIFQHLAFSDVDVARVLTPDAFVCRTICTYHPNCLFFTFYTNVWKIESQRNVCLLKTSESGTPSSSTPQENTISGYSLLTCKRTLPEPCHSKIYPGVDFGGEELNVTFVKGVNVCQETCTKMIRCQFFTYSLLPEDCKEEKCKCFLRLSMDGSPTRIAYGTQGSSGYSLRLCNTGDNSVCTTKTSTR
Sequence of KLK1 (P06870 25-262, species assumed): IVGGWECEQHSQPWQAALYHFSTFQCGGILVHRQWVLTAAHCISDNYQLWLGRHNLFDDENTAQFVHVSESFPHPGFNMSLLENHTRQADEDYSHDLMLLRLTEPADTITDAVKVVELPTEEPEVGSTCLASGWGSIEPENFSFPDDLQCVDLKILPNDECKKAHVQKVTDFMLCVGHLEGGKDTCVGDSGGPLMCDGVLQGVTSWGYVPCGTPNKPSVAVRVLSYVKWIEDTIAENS

## Cc1cc(N)nc(C)c1CNC(=O)c1ncn(C(C)c2ccc(Cn3ccccc3=O)cc2)n1 (stereo not drawn) [Compound 50]
Plasma kallikrein (PKa); [1]
  IC50: 0.89 nM
KLK1
  IC50: > 10 µM
FXIa
  IC50: > 10 µM

## N=C(N)c1ccc(CNC(=O)c2cnn(Cc3c(Cl)cc(CC4CC4)cc3Cl)c2)cc1 [Compound 347]
Plasma kallikrein (PKa); [1]
  IC50: 1.04 nM
KLK1
  IC50: > 10 µM
FXIa
  IC50: > 10 µM

## Cc1cc(N)nc(C)c1CNC(=O)c1cn(Cc2ccc(Cn3ccccc3=O)cc2)nc1C(F)F [Compound 69, N-((6-amino-2,4-dimethylpyridin-3-yl)methyl)-3-(difluoromethyl)-1-(4-(2-oxopyridin-1(2H)-yl)methylbenzyl)-1H-pyrazole-4-carboxamide]
Plasma kallikrein (PKa); [1]
  IC50: 0.076 nM
KLK1
  IC50: > 10 µM
FXIa
  IC50: > 10 µM

## N=C(N)c1ccc(CNC(=O)c2cnn(Cc3ccc(OC4CCCC4)c(C(F)(F)F)c3)c2)cc1 [Compound 386]
Plasma kallikrein (PKa); [1]
  IC50: 1.68 nM
KLK1
  IC50: > 10 µM
FXIa
  IC50: > 10 µM

## CN1CCc2cnc(CNC(=O)c3cnn(Cc4ccc(Cn5ccccc5=O)cc4)c3)c(F)c21 [Compound 383]
Plasma kallikrein (PKa); PKa IC50, plasma kallikrein enzyme assay
  IC50: 1.39 nM
KLK1
  IC50: > 10 µM
FXIa
  IC50: > 10 µM

## N=C(N)c1ccc(CNC(=O)c2cnn(Cc3ccc(N4CC5C(C4)C5(F)F)c(C(F)(F)F)c3)c2)cc1 (stereo not drawn) [Compound 382]
Plasma kallikrein (PKa); [1]
  IC50: 0.15 nM
KLK1
  IC50: > 10 µM
FXIa
  IC50: > 10 µM

## Cc1cc(C(=N)N)cc(C)c1CNC(=O)c1cnn(Cc2ccc(Cn3ccccc3=O)cc2)c1 [Compound 314]
Plasma kallikrein (PKa); [1]
  IC50: 0.32 nM
KLK1
  IC50: > 10 µM
FXIa
  IC50: > 10 µM

## Cc1nc(N)c(C)c(C)c1CNC(=O)c1ncn(Cc2ccc(Cn3ccccc3=O)cc2)n1 [Compound 250]
Plasma kallikrein (PKa); [1]
  IC50: 1.9 nM
KLK1
  IC50: > 10 µM
FXIa
  IC50: > 10 µM

## Cn1ccc2cnc(CNC(=O)c3cn(Cc4ccc(Cn5ccccc5=O)cc4)nc3C3COC3)c(F)c21 [Compound 338]
Plasma kallikrein (PKa); [1]
  IC50: 1.38 nM
KLK1
  IC50: > 10 µM
FXIa
  IC50: > 10 µM

## COCc1nn(Cc2ccc(Cn3ccccc3=O)cc2)cc1C(=O)NCc1ncc2c(c1F)NCC2 [Compound 392]
Plasma kallikrein (PKa); [1]
  IC50: 2.44 nM
KLK1
  IC50: > 10 µM
FXIa
  IC50: > 10 µM

## Cc1cc(N)nc(C)c1CNC(=O)c1cnn(Cc2ccc(N3CC4C(C3)C4(F)F)cc2C#N)c1 (stereo not drawn) [Compound 7, N-((6-amino-2,4-dimethylpyridin-3-yl)methyl)-1-(2-cyano-4-(6,6-difluoro-3-azabicyclo[3.1.0]hexan-3-yl)benzyl)-1H-pyrazole-4-carboxamide]
Plasma kallikrein (PKa); [1]
  IC50: < 0.051 nM
KLK1
  IC50: > 10 µM
FXIa
  IC50: > 10 µM

## Cc1cc(N)nc(C)c1CNC(=O)c1ncn(Cc2cc(Cn3ccccc3=O)cs2)n1 [Compound 73]
Plasma kallikrein (PKa); [1]
  IC50: 3.07 nM
KLK1
  IC50: > 10 µM
FXIa
  IC50: > 10 µM

## Cc1cc(N)nc(C)c1CNC(=O)c1ncn(Cc2c(F)c(F)c(Cn3ccccc3=O)c(F)c2F)n1 [Compound 22]
Plasma kallikrein (PKa); [1]
  IC50: 0.63 nM
KLK1
  IC50: > 10 µM
FXIa
  IC50: > 10 µM

## Cc1cc(N)nc(C)c1CNC(=O)c1cnn(Cc2ccc3ncc(Cl)cc3c2)c1 [Compound 10, N-((6-amino-2,4-dimethylpyridin-3-yl)methyl)-1-((3-chloroquinolin-6-yl)methyl)-1H-pyrazole-4-carboxamide]
Plasma kallikrein (PKa); [1]
  IC50: 0.132 nM
KLK1
  IC50: > 10 µM
FXIa
  IC50: > 10 µM

## N=C(N)c1ccc(CNC(=O)c2cnn(Cc3ccc(Cn4ccccc4=O)cc3)c2)cc1 [Compound 12]
Plasma kallikrein (PKa); [1]
  IC50: 1.62 nM
KLK1
  IC50: > 10 µM
FXIa
  IC50: > 10 µM

## CCc1c(N)nc(C)c(CNC(=O)c2cnn(Cc3ccc(Cn4ccccc4=O)cc3)c2)c1C [Compound 253]
Plasma kallikrein (PKa); [1]
  IC50: 0.18 nM
KLK1
  IC50: > 10 µM
FXIa
  IC50: > 10 µM

## Cc1cc(C)n(Cc2ccc(Cn3cc(C(=O)NCc4ccc(C(=N)N)cc4F)cn3)cc2)n1 [Compound 355]
Plasma kallikrein (PKa); [1]
  IC50: 0.12 nM
KLK1
  IC50: > 10 µM
FXIa
  IC50: > 10 µM

## O=C(NCc1ncc2cc[nH]c2c1F)c1cnn(Cc2ccc(Cn3ccccc3=O)cc2)c1 [Compound 362, N-((7-fluoro-1H-pyrrolo[3,2-c]pyridin-6-yl)methyl)-1-(4-((2-oxopyridin-1(2H)-yl)methyl)benzyl)-1H-pyrazole-4-carboxamide]
Plasma kallikrein (PKa); [1]
  IC50: 2.57 nM
KLK1
  IC50: > 10 µM
FXIa
  IC50: > 10 µM

## N=C(N)c1ccc(CNC(=O)c2cnn(Cc3cn4cc(C5CC5)ccc4n3)c2)cc1 [Compound 15]
Plasma kallikrein (PKa); [1]
  IC50: 0.898 nM
KLK1
  IC50: > 10 µM
FXIa
  IC50: > 10 µM

## N=C(N)c1ccc(CNC(=O)c2cnn(Cc3ccc(CC4CC4)cc3)c2)cc1 [Compound 105]
Plasma kallikrein (PKa); [1]
  IC50: 0.26 nM
KLK1
  IC50: > 10 µM
FXIa
  IC50: > 10 µM

## N=C(N)c1ccc(CNC(=O)c2cnn(Cc3ccc(Cn4ccccc4=O)cc3)c2)cn1 [Compound 353]
Plasma kallikrein (PKa); [1]
  IC50: 0.79 nM
KLK1
  IC50: > 10 µM
FXIa
  IC50: > 10 µM

Source: patent publication EP4737450A1 (Longwood Pharmaceuticals (Hangzhou) Co., Ltd, priority 2023, dated 2025)
